Experimental data published in US20160223547A1, “MARKER FOR PREDICTING METASTASIS OF BREAST CANCER” (priority 2013, published 2016).

Experiments:
FN14 = assay: Immunohistochemistry of FN14 expression in triple-negative breast carcinoma grafts treated with lenalidomide; assay type: in vivo; conditions: triple-negative breast carcinoma graft in immunosuppressed mice, vs carrier control, anti-FN14 immunohistochemistry
Source text: Experimental tumors induced in the breast of immunosuppressed mice by implanting small biopsy fragments (2×2 mm) from patients with triple-negative breast carcinoma. An example of one of these grafts treated with lenalidomide (LND) with respect to the same graft treated with the carrier (control) is shown.
For expression studies, the immunohistochemistry technique with specific anti-FN14 antibodies (sc-27143, C-13, Santa Cruz Biotechnology) at a concentration of 1/3000 was used. Kidney and heart tissues were used as control tissues to view the expression in the cell membrane. The antigens were exposed by heating the preparations in a pressure cooker for 7 minutes in the suitable citrate buffer (Sanz et al., Am J Pathol, 179(2):564-579, 2011).
The primary antibody was diluted in the Dako diluent buffer (Dako, Glostrup, Denmark; Carpinteria, Calif.): Tris buffer, pH 7.2, 15 mmol/1 of NaN3. The LSAB peroxidase system (Dako), including biotinylated secondary antibody, followed by conjugated streptavidin, was used along with the ultraView detection kit (Ventana Benchmark XT, Roche, Tucson, Ariz.). The tumors were classified in three categories considering staining intensity: negative, weakly positive and strongly positive. Only those which are strongly positive in more than 30% of the tumor cells were considered with the overexpressed protein.

[1] = test system: brain metastases of breast cancer induced by BRV5CA1 cells; assay: Therapeutic effect on brain metastases induced by BRV5CA1 cells, luciferase emission monitored in vivo; conditions: female Athymic Nude-Foxn1nu mice, 50 mg/kg/d on consecutive days, after a week of treatment
Description: The therapeutic effect of lenalidomide was analyzed by treating the brain metastases of breast cancer induced by injecting BRV5CA1 cells labeled with the luciferase gene into female Athymic Nude-Foxnlnu mice (Martinez-Aranda A., Int. J. Mol. Sci. 2013, 14(4), 8306-8327). The treatment groups N=8 (lenalidomide 50 mg/kg/d on consecutive days) and the control group, in which carrier was injected, were established. The start of the treatment was established on day 14 after the graft and treatment was maintained for 15 days until the end of the experiment. The treatment was started on day 13 after induction and progression of the growth of metastasis was monitored in vivo by quantifying luciferase emission (photons per second) (FIG. 7). After a week of treatment, the difference in growth of the metastasis between the control group and the treated group was significant.

[2] = test system: BRV5CA1 cells (clones 424-2 and 424-8, silenced GRP94; Pool, non-silenced GRP94); assay: MTT cytotoxicity assay of taxotere on brain metastatic breast cancer cells with silenced or non-silenced GRP94; assay type: cell-based; conditions: clones 424-2 and 424-8 (silenced GRP94) vs pool, 1-10 ng/ml, 72 h
Description: To […], three sublines were used: Clones: 424-2 and 424-8 (silenced GRP94 [shGRP94]) and a Pool (non-silenced GRP94), from the metastatic variant BRV5Ca1.
For the cytotoxicity assay, each cell type was seeded in triplicate in a 96-well plate (Costar® 3596; Corning Incorporated) at a density of 6000 cells/well in 50 μL of complete medium (DMEM/F12 GIBCO® with serum). Twenty-four hours after seeding the cells, they were treated with taxotere (docetaxel >99%; LC Laboratories (www.LCLabs.com); Stock 200 mg/ml), at different concentrations in triplicate: 10-5-2.5-1 and 0 ng/ml, in a volume of 50 μL/well. Seventy-two hours after the start of the treatment, a cell viability assay MTT was carried out in which survival expressed as a percentage (%) was analyzed (FIG. 2). […]
After this time, the medium was removed from the wells and 50 μL of MTT [3-(4,5-dimethylthiazol-2-yl)-2,5-diphenyltetrazolium bromide; Sigma-Aldrich) were added per well, at a concentration of 5 mg MTT/ml of medium without serum. […] It was left to stir for 10-15 minutes (in the dark) and was then analyzed in the microplate spectrophotometer (PowerWave™ XS; BioTek) at a wavelength of 540 nm.
Absorbance values (OD) were obtained in triplicate for each of the treatment concentrations established. The calculated mean was expressed in reference to the control thereof (0 ng/ml), considered as the maximum survival value (100%).

[3] = test system: xenotransplant of breast cancer metastasizing to the brain; assay: Effect of taxotere on growth of intramammary xenografts; assay type: in vivo; conditions: Athymic Nude-Foxn1nu mice, 15 mg/kg/day every 4 days for two weeks, vs carrier control, p=0.003
Description: A xenotransplant of breast cancer metastasizing to the brain provided by Dr. Eva Gonzalez was used to induce breast tumors in immunosuppressed Athymic Nude-Foxnlnu mice weighing 22-28 grams acquired from Charles-River Laboratories (Wilmington, Mass.) and to establish groups that are treated or not treated with taxotere following a previously established standard protocol of 15 mg/kg/day every 4 days for two weeks (Bin Gu et al., Carcinogenesis, 2004). The 2 mm^3 tumor fragment was implanted in the inguinal breast of female mice and 10 days were waited out for the graft to progress. After evaluating the volume of the tumor, treatment with taxotere was started, considering in each case a control group which was treated with the drug carrier.

| Compound | expression of FN14 in tumor graft (FN14) | difference in growth of the metastasis between control group and treated group (luciferase emission, photons per second) [1] | survival of cells after treatment (percentage of survival with respect to the control) [2] | tumor growth (normalized volume divided by the initial volume) [3] |
| --- | --- | --- | --- | --- |
| Nc1cccc2c1CN(C1CCC(=O)NC1=O)C2=O (centres unmarked) [lenalidomide] | inhibition of the expression of FN14 | significant |  |  |
| CC(=O)O[C@H]1C(=O)[C@@]2(C)[C@H]([C@H](OC(=O)c3ccccc3)[C@]3(O)C[C@H](OC(=O)[C@H](O)[C@@H](NC(=O)c4ccccc4)c4ccccc4)C(C)=C1C3(C)C)[C@]1(OC(C)=O)CO[C@@H]1C[C@@H]2O [taxol, 11-methano-5H-cyclodeca[3,4]benz[1,2-b]oxete benzenepropanoic acid deriv.] |  |  | lower survival |  |
| CC(=O)O[C@@]12CO[C@@H]1C[C@H](O)[C@@]1(C)C(=O)[C@H](O)C3=C(C)[C@@H](OC(=O)[C@H](O)[C@@H](NC(=O)OC(C)(C)C)c4ccccc4)C[C@@](O)([C@@H](OC(=O)c4ccccc4)[C@H]21)C3(C)C [taxotere, N-debenzoyl-N-tert-butoxycarbonyl-10-deacetyl taxol] |  |  | significantly reduces the survival | tendency to grow less than that of the control |
